# Source: the Kinase Knowledgebase extract (Sharma et al. 2016)
# Target: EGFR (murine) (UniProt P00533)
# Settings: nih3t3/c7
# EGFR (murine), sequence (P00533 whole entry, looked up): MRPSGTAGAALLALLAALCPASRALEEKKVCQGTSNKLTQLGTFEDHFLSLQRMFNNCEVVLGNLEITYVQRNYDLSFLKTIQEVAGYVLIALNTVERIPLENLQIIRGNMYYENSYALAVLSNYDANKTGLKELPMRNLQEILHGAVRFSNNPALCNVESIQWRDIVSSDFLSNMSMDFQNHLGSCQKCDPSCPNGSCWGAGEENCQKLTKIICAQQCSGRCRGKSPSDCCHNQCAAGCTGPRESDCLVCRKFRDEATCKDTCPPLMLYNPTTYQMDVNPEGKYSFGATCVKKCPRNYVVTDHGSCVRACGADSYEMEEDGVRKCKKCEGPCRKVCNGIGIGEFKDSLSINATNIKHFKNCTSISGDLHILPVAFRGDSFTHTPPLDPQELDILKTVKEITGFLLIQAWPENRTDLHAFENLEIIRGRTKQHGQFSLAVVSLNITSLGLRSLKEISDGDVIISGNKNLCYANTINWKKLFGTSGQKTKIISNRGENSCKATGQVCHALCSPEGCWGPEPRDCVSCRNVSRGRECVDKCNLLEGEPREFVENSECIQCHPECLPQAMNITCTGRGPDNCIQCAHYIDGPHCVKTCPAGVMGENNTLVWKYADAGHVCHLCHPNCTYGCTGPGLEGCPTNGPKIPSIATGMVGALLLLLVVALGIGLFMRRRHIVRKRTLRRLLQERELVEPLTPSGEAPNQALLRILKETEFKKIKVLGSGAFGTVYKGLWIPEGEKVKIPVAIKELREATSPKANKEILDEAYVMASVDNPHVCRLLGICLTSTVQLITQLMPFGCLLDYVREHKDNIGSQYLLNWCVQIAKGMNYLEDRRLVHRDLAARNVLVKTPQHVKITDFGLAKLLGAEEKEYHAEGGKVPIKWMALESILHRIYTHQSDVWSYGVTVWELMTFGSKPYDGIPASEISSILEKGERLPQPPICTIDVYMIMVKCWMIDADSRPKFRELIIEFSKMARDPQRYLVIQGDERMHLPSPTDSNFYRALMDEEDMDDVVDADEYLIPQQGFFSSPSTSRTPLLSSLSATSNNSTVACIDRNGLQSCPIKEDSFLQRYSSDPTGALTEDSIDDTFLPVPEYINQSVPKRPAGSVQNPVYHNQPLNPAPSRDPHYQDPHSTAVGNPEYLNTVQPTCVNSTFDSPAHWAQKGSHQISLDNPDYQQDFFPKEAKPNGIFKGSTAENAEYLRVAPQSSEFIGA
row,IC50 [µM],SMILES
1,> 100,O=C1Nc2ccccc2/C1=C1\CCc2ccccc21
2,> 100,COc1ccc2c(c1)C(CC(=O)O)C/C2=C1/C(=O)Nc2ccccc21 (centres undefined)

# Target: EGFR (UniProt P00533)
# Settings: not given
# EGFR, sequence (P00533 whole entry, looked up): as above
row,IC50 [µM],SMILES
1,> 100,COc1ccc2c(c1)/C(=C1\C(=O)Nc3ccccc31)CC2
2,> 100,COc1ccc2c(c1)CC/C2=C1/C(=O)Nc2ccccc21
3,> 100,CC1C/C(=C2/C(=O)Nc3ccccc32)c2ccccc21 (centres undefined)
4,> 100,O=C1Nc2ccccc2/C1=C1\CCc2cc(N3CCCCC3)ccc21
5,> 100,O=C1Nc2ccccc2/C1=C1\CCc2cc(Cl)ccc21
6,> 100,CN(C)c1ccc2c(c1)CC/C2=C1/C(=O)Nc2ccccc21
7,> 100,Nc1ccc2c(c1)CC/C2=C1/C(=O)Nc2ccccc21
8,> 100,O=C1Nc2ccccc2/C1=C1\CCc2cc(Br)ccc21
9,> 25,COc1cc2c(cc1OC)/C(=C1\C(=O)Nc3ccccc31)CC2
10,> 100,O=C1Nc2ccccc2/C1=C1\CCc2ccccc21
11,> 100,Cc1cccc2c1CC/C2=C1/C(=O)Nc2ccccc21
12,> 100,COc1ccc2c(c1)C(CC(=O)O)C/C2=C1/C(=O)Nc2ccccc21 (centres undefined)
